Measurements taken from paper PMC9019904, “AD Informer Set: Chemical tools to facilitate Alzheimer's disease drug discovery” (Alzheimer's & Dementia : Translational Research & Clinical …, 2022).
Converted amounts (≈) assume the structure as drawn. One block for each compound: values may come before it.

Key:
cellular system = conditions: published cellular activity at 10 μM; cited from earlier work
[1] = system: BV2 (mouse microglia) cell line; assay: pHrodo-myelin phagocytosis/cell viability high content imaging assay: phagocytosis signal; type: cell-based
Outline: (§1)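 Imaging at high content captured pHrodo-myelin uptake about 22 hours after its addition, alongside a viability read-out from the same cells. Three measurements were derived, with intensity increase marking early apoptosis and decrease marking later apoptosis.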

physchem = conditions: pH 7.4, aqueous buffer, kinetic from dmso stock
[2] = system: BV2 (mouse microglia) cell line; assay: pHrodo-myelin phagocytosis/cell viability high content imaging assay: viability (cell count, nuclear area, nuclear intensity)
Outline: (§2)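 Immortalized microglia are treated with compound (10 μM, single concentration) for 48 h, the final 20 h alongside pHrodo-myelin. Data are the mean of duplicates, reported as % of untreated control.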

[3] = system: HMC3 (human microglia) cell line; assay: as above; conditions: for Human microglial cytotoxicity at 10 μM (<70% control): HMC3, 10 μM
Outline: as §2

[4] = system: HMC3 (human microglia) cell line; assay: pHrodo-myelin phagocytosis/cell viability high content imaging assay: phagocytosis signal; type: cell-based
Outline: as §1

[5] = BV2 cells, 10 uM compound, 48 hours treatment
[6] = HMC3 cells, 10 uM compound, 48 hours treatment

Compound: CC[C@H](C)[C@H](N)C(=O)NCCN1CCOCC1.Cl.Cl [LM11A-31 dihydrochloride]
Reported as cell active (<10 μM) (cellular system): Y (Published data supports that the compound is active in a cellular system when dosed at 10 μM (Y/N)) | Stimulation of mouse microglial phagocytosis at 10 μM (>150% control) ([1]; BV2 cells, 10 μM): Y (The compound was found to stimulate phagocytosis (response threshold: >150% control) when murine immortalized microglial cells were dosed at 10 μM (Y: yes)) | solubility kinetic (physchem): 178 µM

Compound: O=S(=O)(c1ccc2c(c1)C(=NO)c1cc(S(=O)(=O)N3CCCCC3)ccc1-2)N1CCCCC1 [CA3 (CIL56)]
Mouse microglial cytotoxicity at 10 μM (<70% control) ([2]; BV2, 10 μM, cell count <70% control): Y (The compound was found to be cytotoxic (cell count threshold: <70% control) when murine immortalized microglial cells were dosed at 10 μM (Y: yes)) | Human microglial cytotoxicity at 10 μM (<70% control) ([3]; cell count <70% control): Y (The compound was found to be cytotoxic (cell count threshold: <70% control) when human immortalized microglial cells were dosed at 10 μM (Y: yes)) | Inhibition of mouse microglial phagocytosis at 10 μM (<70% control) ([1]; BV2, 10 μM): Y (The compound was found to inhibit phagocytosis (response threshold: <70% control) when murine immortalized microglial cells were dosed at 10 μM (Y: yes)) | Inhibition of human microglial phagocytosis at 10 μM (<70% control) ([4]; HMC3, 10 μM): Y (The compound was found to inhibit phagocytosis (response threshold: <70% control) when human immortalized microglial cells were dosed at 10 μM (Y: yes)) | solubility kinetic (physchem): 1.2 µM (≈ 0.588 µg/mL)

Compound: NC(=O)[C@@H]1CC[C@H](c2ccc(OCc3ccccc3F)cc2)N1 [Raxatrigine]
Reported as cell active (<10 μM) (cellular system): Y (Published data supports that the compound is active in a cellular system when dosed at 10 μM (Y/N)) | Stimulation of mouse microglial phagocytosis at 10 μM (>150% control) ([1]; BV2 cells, 10 μM): Y (The compound was found to stimulate phagocytosis (response threshold: >150% control) when murine immortalized microglial cells were dosed at 10 μM (Y: yes)) | solubility kinetic (physchem): 178 µM (≈ 55.9 µg/mL)

Compound: C=Cc1c(C)c2cc3nc(cc4[nH]c(cc5nc(cc1[nH]2)C(C)=C5CCC(=O)O)c(CCC(=O)OC)c4C)[C@@]1(C)C3=CC=C(C(=O)OC)[C@H]1C(=O)OC [Verteporfin]
Stimulation of mouse microglial phagocytosis at 10 μM (>150% control) ([1]; BV2, 10 μM): Y (The compound was found to stimulate phagocytosis (response threshold: >150% control) when murine immortalized microglial cells were dosed at 10 μM (Y: yes)) | Inhibition of human microglial phagocytosis at 10 μM (<70% control) ([4]; HMC3, 10 μM): Y (The compound was found to inhibit phagocytosis (response threshold: <70% control) when human immortalized microglial cells were dosed at 10 μM (Y: yes)) | solubility kinetic (physchem): 134 µM (≈ 96.7 µg/mL)

Compound: CC(C)Nc1cc(-c2c[nH]c(C(=O)N[C@H](CO)c3cccc(Cl)c3)c2)c(Cl)cn1 [Ulixertinib]
Mouse microglial cytotoxicity at 10 μM (<70% control) ([2]; 10 μM, BV2): Y (The compound was found to be cytotoxic (cell count threshold: <70% control) when murine immortalized microglial cells were dosed at 10 μM (Y: yes)) | Stimulation of mouse microglial phagocytosis at 10 μM (>150% control) ([1]; 10 μM, BV2): Y (The compound was found to stimulate phagocytosis (response threshold: >150% control) when murine immortalized microglial cells were dosed at 10 μM (Y: yes)) | Inhibition of human microglial phagocytosis at 10 μM (<70% control) ([4]; 10 μM, HMC3): Y (The compound was found to inhibit phagocytosis (response threshold: <70% control) when human immortalized microglial cells were dosed at 10 μM (Y: yes)) | solubility kinetic (physchem): 8.7 µM (≈ 3.77 µg/mL)

Compound: Cl.O=C(NCCCNc1nc(Nc2cccc(CN3CCOCC3)c2)ncc1C1CC1)C1CCC1 [UNC10302867A, reference compound]
Mouse microglial cytotoxicity at 10 μM (<70% control) ([2]; 10 μM, BV2): Y (The compound was found to be cytotoxic (cell count threshold: <70% control) when murine immortalized microglial cells were dosed at 10 μM (Y: yes)) | 1. Cell count (% control) [2, 5]: 17.6 % control | 2. Nuclear Area (% Control) [2, 5]: 154.0 % Control | 3. Nuclear DNA Intensity (% control) [2, 5]: 122.3 % control | 1. Cell count (% control) [3, 6]: 81.1 % control | 2. Nuclear Area (% Control) [3, 6]: 129.3 % Control | 3. Nuclear DNA Intensity (% control) [3, 6]: 124.9 % control | Stimulation of mouse microglial phagocytosis at 10 μM (>150% control) ([1]; 10 μM, BV2): Y (The compound was found to stimulate phagocytosis (response threshold: >150% control) when murine immortalized microglial cells were dosed at 10 μM (Y: yes)) | phagocytosis in mouse microglial cells (< 70% control inhibition, > 150% control stimulation) ([1]; BV2, 10 μM, pHrodo-myelin): stimulator of phagocytosis | 4. Phagocytosis (% control) ([1]; BV2 cells, 10 uM compound, 48 hours treatment, pHrodo-myelin final 20 hours): 282.0 % control | Stimulation of human microglial phagocytosis at 10 μM (>150% control) ([4]; 10 μM, HMC3): Y (The compound was found to stimulate phagocytosis (response threshold: >150% control) when human immortalized microglial cells were dosed at 10 μM (Y: yes)) | phagocytosis in human microglial cells (< 70% control inhibition, > 150% control stimulation) ([4]; HMC3, 10 μM, pHrodo-myelin): stimulator of phagocytosis | 4. Phagocytosis (% control) ([4]; HMC3 cells, 10 uM compound, 48 hours treatment, pHrodo-myelin final 20 hours): 290.0 % control | solubility kinetic (physchem): 119 µM

Compound: CNC(=O)CN1CCC(Oc2cc3c(Nc4cccc(Cl)c4F)ncnc3cc2OC)CC1 [Sapitinib (AZD8931)]
Inhibition of mouse microglial phagocytosis at 10 μM (<70% control) ([1]; BV2, 10 μM): Y (The compound was found to inhibit phagocytosis (response threshold: <70% control) when murine immortalized microglial cells were dosed at 10 μM (Y: yes)) | Stimulation of human microglial phagocytosis at 10 μM (>150% control) ([4]; HMC3, 10 μM): Y (The compound was found to stimulate phagocytosis (response threshold: >150% control) when human immortalized microglial cells were dosed at 10 μM (Y: yes)) | solubility kinetic (physchem): 115 µM (≈ 54.3 µg/mL)

Compound: Cc1cc(SCc2sc(-c3ccc(C(F)(F)F)c(F)c3)nc2C)ccc1OCC(=O)O [GW0742]
Reported as cell active (<10 μM) (cellular system): Y (Published data supports that the compound is active in a cellular system when dosed at 10 μM (Y/N)) | solubility kinetic (physchem): 145 µM (≈ 68.3 µg/mL)

Compound: CC(C)CCC[C@@H](C)[C@H]1CC[C@H]2[C@@H]3CC[C@H]4C[C@H](N)CC[C@]4(C)[C@H]3CC[C@]12C [3α-Aminocholestane]
Mouse microglial cytotoxicity at 10 μM (<70% control) ([2]; 10 μM, BV2): Y (The compound was found to be cytotoxic (cell count threshold: <70% control) when murine immortalized microglial cells were dosed at 10 μM (Y: yes)) | Stimulation of mouse microglial phagocytosis at 10 μM (>150% control) ([1]; 10 μM, BV2): Y (The compound was found to stimulate phagocytosis (response threshold: >150% control) when murine immortalized microglial cells were dosed at 10 μM (Y: yes)) | Inhibition of human microglial phagocytosis at 10 μM (<70% control) ([4]; 10 μM, HMC3): Y (The compound was found to inhibit phagocytosis (response threshold: <70% control) when human immortalized microglial cells were dosed at 10 μM (Y: yes)) | solubility kinetic (physchem): 2.2 µM (≈ 0.853 µg/mL)

Compound: CNC(=O)c1c(F)cccc1Nc1nc(Nc2cc3c(cc2OC)CCN3C(=O)CN(C)C)nc2[nH]ccc12 [GSK1838705A]
Mouse microglial cytotoxicity at 10 μM (<70% control) ([2]; BV2, 10 μM): Y (The compound was found to be cytotoxic (cell count threshold: <70% control) when murine immortalized microglial cells were dosed at 10 μM (Y: yes)) | Inhibition of human microglial phagocytosis at 10 μM (<70% control) ([4]; HMC3, 10 μM): Y (The compound was found to inhibit phagocytosis (response threshold: <70% control) when human immortalized microglial cells were dosed at 10 μM (Y: yes)) | solubility kinetic (physchem): 1 µM (≈ 0.533 µg/mL)

Compound: CCc1cc2c(cc1N1CCC(N3CCOCC3)CC1)C(C)(C)c1[nH]c3cc(C#N)ccc3c1C2=O [Alectinib]
Human microglial cytotoxicity at 10 μM (<70% control) [3]: Y (The compound was found to be cytotoxic (cell count threshold: <70% control) when human immortalized microglial cells were dosed at 10 μM (Y: yes)) | Stimulation of mouse microglial phagocytosis at 10 μM (>150% control) ([1]; BV2, 10 μM): Y (The compound was found to stimulate phagocytosis (response threshold: >150% control) when murine immortalized microglial cells were dosed at 10 μM (Y: yes)) | Inhibition of human microglial phagocytosis at 10 μM (<70% control) ([4]; HMC3, 10 μM): Y (The compound was found to inhibit phagocytosis (response threshold: <70% control) when human immortalized microglial cells were dosed at 10 μM (Y: yes)) | solubility kinetic (physchem): 0.6 µM (≈ 0.29 µg/mL)

Compound: Cc1c(-c2ccc(O)cc2)n(Cc2ccc(OCCN3CCCCCC3)cc2)c2ccc(O)cc12 [Bazedoxifene acetate]
Inhibition of mouse microglial phagocytosis at 10 μM (<70% control) ([1]; 10 μM, BV2): Y (The compound was found to inhibit phagocytosis (response threshold: <70% control) when murine immortalized microglial cells were dosed at 10 μM (Y: yes)) | Inhibition of human microglial phagocytosis at 10 μM (<70% control) ([4]; 10 μM, HMC3): Y (The compound was found to inhibit phagocytosis (response threshold: <70% control) when human immortalized microglial cells were dosed at 10 μM (Y: yes)) | solubility kinetic (physchem): 10.8 µM

Compound: O=c1[nH]c2ccccc2n1C1CCN(CCCC(c2ccc(F)cc2)c2ccc(F)cc2)CC1 [Pimozide]
Reported as cell active (<10 μM) (cellular system): Y (Published data supports that the compound is active in a cellular system when dosed at 10 μM (Y/N)) | solubility kinetic (physchem): 2.9 µM (≈ 1.34 µg/mL)

Continued, in another order:

solubility kinetic (physchem): 1.5 µM (≈ 1 µg/mL)
Compound: CN(C)CC#Cc1ccc(OCCCc2sc(N3CCc4cccc(C(=O)Nc5nc6ccccc6s5)c4C3)nc2C(=O)O)c(F)c1 [A-1155463]
Stimulation of mouse microglial phagocytosis at 10 μM (>150% control) ([1]; BV2, 10 μM): Y (The compound was found to stimulate phagocytosis (response threshold: >150% control) when murine immortalized microglial cells were dosed at 10 μM (Y: yes)) | Inhibition of human microglial phagocytosis at 10 μM (<70% control) ([4]; HMC3, 10 μM): Y (The compound was found to inhibit phagocytosis (response threshold: <70% control) when human immortalized microglial cells were dosed at 10 μM (Y: yes))

solubility kinetic (physchem): 141 µM (≈ 49 µg/mL)
Compound: Cc1cc(Nc2nc(N[C@@H](C)c3ncc(F)cn3)ncc2Cl)n[nH]1 [AZD-1480]
Mouse microglial cytotoxicity at 10 μM (<70% control) ([2]; BV2 cells, 10 μM, cell count <70% control): Y (The compound was found to be cytotoxic (cell count threshold: <70% control) when murine immortalized microglial cells were dosed at 10 μM (Y: yes)) | Reported as cell active (<10 μM) (cellular system): Y (Published data supports that the compound is active in a cellular system when dosed at 10 μM (Y/N)) | Stimulation of mouse microglial phagocytosis at 10 μM (>150% control) ([1]; BV2 cells, 10 μM): Y (The compound was found to stimulate phagocytosis (response threshold: >150% control) when murine immortalized microglial cells were dosed at 10 μM (Y: yes))

solubility kinetic (physchem): 76.4 µM
Compound: Cc1ccc(S(=O)(=O)O)cc1.Nc1n[nH]cc1-c1cc(Cl)ccc1Oc1cc(F)c(S(=O)(=O)Nc2cscn2)cc1Cl [PF-05089771]
Reported as cell active (<10 μM) (cellular system): Y (Published data supports that the compound is active in a cellular system when dosed at 10 μM (Y/N))
